Several values for one entry are separate records, joined by “and”; a condition that tells them apart may be missing. Identical values can stand only once. Marks after values point to notes of the source that are not given here.
Experiments:
[1] = system: human colon cancer HCT-116 cells (a moderately drug resistant strain); assay: MTT assay: deuterium oxide in combination with 5-FU; format: cell-based; conditions: read-out: Inhibition of cell growth (%) (5-FU alone)
Protocol: In vitro inhibition of growth of human colon cancer HCT-116 cells (a moderately drug resistant strain) by deuterium oxide in combination with 5-fluorouracil (5-FU)
Method: 5-fluorouracil was diluted with the sodium chloride deuterium oxide solution according to the concentrations shown in Table 2 and added to a cell culture plate; the in vitro inhibition of tumor cell growth was measured by the MTT assay in the same manner as Example 14.
The assay was repeated one more time.

[2] = system: xenograft tumors from human colon cancer HCT-116 cells; assay: HCT-116 xenograft in nude mice, intravenous deuterium oxide in combination with 5-fluorouracil; format: in vivo, BALB/c nude mice; conditions: for Inhibition (%): tumor weight
Protocol: Ltd. Cell lines: human colon cancer cells HCT-116 were provided by NANJING […] BIOTECH. CO., LTD. […] Bone marrow nucleated cells were isolated by a routine method, DNA was extracted from the cells, the OD value was measured in a UV-260 spectrometer as a representative of the DNA content, and inhibition of DNA synthesis by the test samples was observed. The test used 7 groups in total, with 8 animals per group. […] Tumor volume (TV) was calculated by the following equation: […] From the measurements, relative tumor volume (RTV) was calculated by the following equation: RTV=Vt/V0 Relative tumor growth ratio T/C (%) was calculated by the following equation: Criteria of efficacy evaluation: […] T/C %≦40% and statistically P<0.05, efficacious. Inhibition of tumor growth (%) was calculated by the following equation: Criteria of efficacy evaluation: […] The mean value was expressed in X±SD. Inter-group analysis was statistically performed with t test. The results were statistically analyzed using SPSS (Statistical Package for the Social Science) 17.0.

malignant tumors = conditions: as a single drug in clinical settings; cited from earlier work
[3] = system: human lung cancer A549 cells; assay: Cell invasion assayed by Transwell; format: cell-based; conditions: invaded cells, control 183.0 ± 12.3
Protocol: Cell lines: human colon cancer HCT-116 cells and human lung cancer A549 cells were provided by NANJING […] BIOTECH. CO., LTD. […] The cell suspension was centrifuged at 800 to 1,000 rpm for 5 min, and the supernatant was discarded; 1.4. A complete culture medium was added to the cell pellet which was well mixed by gentle pipetting, the cell suspension was transferred to a culture flask, and the cells were cultured by supplementing culture medium. 1. […] After incubation of cells with the test drugs for 24 hours, serum was removed, and the cells were incubated under starvation with an incomplete culture medium for 24 hours; 3. Matrigel was placed at 4° C. in advance to thaw overnight; 4. Thawed Matrigel was 1:1 diluted with the incomplete culture medium, 30 μl diluted Matrigel was added to the upper compartment of Transwell and incubated at 37° C. for 120 min to gel the Matrigel; 5. Cells from different groups were digested, counted, and then adjusted to a density of 1×10^5 cells/ml with the incomplete culture medium, 100 μl cell suspension was added to the upper compartment (small compartment) of Transwell, and 500 μl medium containing 20% FBS was added to the lower compartment of Transwell; 6. A 24-well cell culture plate was placed in an incubator at 37° C. and 5% CO2 to culture the cells for 24 hours; 7. […] The assay was repeated one more time.

adult human = assay: Theoretical extrapolation of the toxic deuterium oxide body content to an adult human; conditions: adult human of 60 kg body weight
Description: Deuterium oxide (heavy water, D2O, Mw: 20.03, CAS No. 7789-20-0) can be isolated from seawater. A normal body of adult human contains about 5 g deuterium oxide. […] Based on this experimental result, theoretically, assuming the body weight of an adult human is 60 kg, deuterium oxide that reaches 18 kg in the body starts to cause toxicity. However, it is actually impossible for a human body to have 18 kg deuterium oxide. […] Therefore, deuterium oxide should be a non-toxic substance [D. M. Czajka: Am. J. Physiol.

dogs = conditions: exogenous deuterium oxide; cited from earlier work
[4] = 5-FU(H) 30 mg/kg × 11, tail vein
[5] = 5-FU(L) 12 mg/kg × 11, tail vein

O=c1[nH]cc(F)c(=O)[nH]1 [Example 5-FU, 5-fluorouracil]
inhibition at 0.02 µg/mL ([1]; 5-FU final conc. 0.02 μg/ml): 2.18% | inhibition at 0.05 µg/mL ([1]; 5-FU final conc. 0.05 μg/ml): 2.55% | inhibition at 0.1 µg/mL ([1]; 5-FU final conc. 0.10 μg/ml): 2.3% | inhibition at 0.2 µg/mL ([1]; 5-FU final conc. 0.20 μg/ml): 3.24% | inhibition at 0.39 µg/mL ([1]; 5-FU final conc. 0.39 μg/ml): 6.98% | inhibition at 0.78 µg/mL ([1]; 5-FU final conc. 0.78 μg/ml): 9.82% | inhibition at 1.56 µg/mL ([1]; 5-FU final conc. 1.56 μg/ml): 11% | inhibition at 3.13 µg/mL ([1]; 5-FU final conc. 3.13 μg/ml): 18.6% | inhibition at 6.25 µg/mL ([1]; 5-FU final conc. 6.25 μg/ml): 26.5% | inhibition at 12.5 µg/mL ([1]; 5-FU final conc. 12.5 μg/ml): 35.3% | Body weight (g) End, given as change [2, 4]: -1.0 g | Body weight (g) Initial [2, 4]: 18.4 ± 0.5 g and 18.4 g | Bone marrow DNA content (OD) [2, 4]: 0.836 ± 0.5023 OD | Tumor weight [2, 4]: 1.04 ± 0.13 g | Body weight (g) End, given as change [2, 5]: -0.6 g | Body weight (g) Initial [2, 5]: 18.0 g | Bone marrow DNA content (OD) [2, 5]: 0.897 ± 0.3783 OD | Tumor weight [2, 5]: 2.23 ± 0.2 g | tumor volume ([2]; 21 days after administration, low-dose 5-FU alone): 2.27±0.30 cm^3 | body weight at end ([2]; high-dose 5-FU positive control): 17.4 ± 0.5 g | T/C (relative tumor growth ratio) ([2]; low-dose 5-FU alone, vs negative control): 80.91% | Inhibition (%) [2, 4]: 64.38%* | Inhibition (%) [2, 5]: 23.64% and 23.63% | overall response rate (malignant tumors): 10%

[2H]O[2H] [Deuterium oxide]
Number of cells (A549) ([3]; deuterium oxide 1.8% (v/v)): 74.3 ± 11.0 | Number of cells (A549) ([3]; deuterium oxide 7.5% (v/v)): 43.0 ± 4.4 | Number of cells (A549) ([3]; deuterium oxide 15% (v/v)): 29.3 ± 1.5 | Number of cells (A549) ([3]; deuterium oxide 30% (v/v)): 22.0 ± 1.7 | Number of cells (A549) ([3]; deuterium oxide […] (v/v)): 54.0 ± 2.0 | amount in the body that starts to cause toxicity (adult human): 18 kg | concentration in the body that causes a toxic effect (dogs): 30%

— patent US20170071976A1, “PHARMACEUTICAL SOLUTION HAVING ANTI-TUMOR EFFECT-ENHANCING AND TOXICITY-REDUCING EFFECT, AND PHARMACEUTICAL COMPOSITION COMPRISING SAME” (priority 2014, published 2017)
